The results in this text go back to patent US20260151383A1, “HETEROCYCLIC COMPOUNDS AND USES THEREOF” (KayoThera Inc., priority 2022, published 2026).

Assay type in all cases: biochemical
What all share (conditions): recombinant enzyme, 20° C., activity level classes

For one assay, the target named is T1, hALDH1a3 (Homo sapiens, UniProt P47895).
T1 construct: made in house; host or cells: E. coli BL21-DE3
T1 sequence (P47895 1-512): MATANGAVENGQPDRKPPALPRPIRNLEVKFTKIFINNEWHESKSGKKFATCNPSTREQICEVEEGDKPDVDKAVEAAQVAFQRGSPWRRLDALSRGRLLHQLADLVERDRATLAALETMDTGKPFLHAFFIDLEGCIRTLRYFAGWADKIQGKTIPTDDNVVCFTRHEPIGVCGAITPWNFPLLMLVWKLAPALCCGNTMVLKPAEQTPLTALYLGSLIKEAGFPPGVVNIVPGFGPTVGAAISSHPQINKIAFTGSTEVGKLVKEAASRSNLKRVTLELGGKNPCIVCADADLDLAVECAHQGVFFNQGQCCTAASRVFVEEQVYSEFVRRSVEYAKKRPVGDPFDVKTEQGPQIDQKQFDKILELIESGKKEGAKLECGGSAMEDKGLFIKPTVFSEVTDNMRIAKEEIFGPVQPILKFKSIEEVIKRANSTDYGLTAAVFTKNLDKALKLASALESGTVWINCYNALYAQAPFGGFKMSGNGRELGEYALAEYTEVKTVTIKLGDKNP
As to the kind of experiment: Aldh1a3 enzyme inhibition assay (resorufin fluorescence), human enzyme.

The next assay addresses T2, mALDH1a2 (Mus musculus, UniProt Q62148).
T2 construct: made in house; host or cells: E. coli BL21-DE3
T2 sequence (Q62148 1-518): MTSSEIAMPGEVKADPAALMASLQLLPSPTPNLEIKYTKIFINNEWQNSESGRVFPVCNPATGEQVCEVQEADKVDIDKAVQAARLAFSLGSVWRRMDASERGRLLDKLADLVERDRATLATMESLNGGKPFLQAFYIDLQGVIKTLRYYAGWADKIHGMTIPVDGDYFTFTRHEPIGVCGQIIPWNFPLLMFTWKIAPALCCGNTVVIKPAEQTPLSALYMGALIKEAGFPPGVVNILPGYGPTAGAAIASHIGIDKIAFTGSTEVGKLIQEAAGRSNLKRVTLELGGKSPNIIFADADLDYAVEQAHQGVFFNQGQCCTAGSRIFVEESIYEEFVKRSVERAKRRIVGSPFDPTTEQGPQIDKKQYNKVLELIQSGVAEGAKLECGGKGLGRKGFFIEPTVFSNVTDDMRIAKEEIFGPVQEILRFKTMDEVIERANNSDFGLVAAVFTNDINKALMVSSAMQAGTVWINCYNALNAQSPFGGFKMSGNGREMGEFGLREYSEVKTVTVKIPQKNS
As to the kind of experiment: Aldh1a2 enzyme inhibition assay (resorufin fluorescence), mouse enzyme. The text has this: (§1) Recombinant enzyme and inhibitor added immediately before assay. Reaction rate measured by resorufln fluorescence.

The next assay has as its target T3, hALDH1a2 (Homo sapiens, UniProt O94788).
T3 construct: made in house; host or cells: E. coli BL21-DE3
T3 sequence (O94788 1-518): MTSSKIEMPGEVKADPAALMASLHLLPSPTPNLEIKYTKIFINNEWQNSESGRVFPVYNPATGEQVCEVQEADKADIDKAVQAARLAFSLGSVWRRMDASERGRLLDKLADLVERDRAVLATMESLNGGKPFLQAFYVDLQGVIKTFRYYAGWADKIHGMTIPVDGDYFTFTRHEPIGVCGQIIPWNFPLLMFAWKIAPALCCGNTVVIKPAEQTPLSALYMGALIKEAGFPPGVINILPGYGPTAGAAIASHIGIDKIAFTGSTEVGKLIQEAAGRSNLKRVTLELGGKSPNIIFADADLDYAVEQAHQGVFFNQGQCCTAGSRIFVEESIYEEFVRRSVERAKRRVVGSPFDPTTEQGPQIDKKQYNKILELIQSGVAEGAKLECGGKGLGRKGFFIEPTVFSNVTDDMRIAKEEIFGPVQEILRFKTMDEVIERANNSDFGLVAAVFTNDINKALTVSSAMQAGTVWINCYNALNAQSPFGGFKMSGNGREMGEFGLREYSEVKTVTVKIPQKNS
The assay is described as follows: Aldh1a2 enzyme inhibition assay (resorufin fluorescence), human enzyme.
Source text: as §1

A further assay has as its target T4, mALDH1a3 (Mus musculus, UniProt Q9JHW9).
T4 construct: made in house; host or cells: E. coli BL21-DE3
T4 sequence (Q9JHW9 1-512): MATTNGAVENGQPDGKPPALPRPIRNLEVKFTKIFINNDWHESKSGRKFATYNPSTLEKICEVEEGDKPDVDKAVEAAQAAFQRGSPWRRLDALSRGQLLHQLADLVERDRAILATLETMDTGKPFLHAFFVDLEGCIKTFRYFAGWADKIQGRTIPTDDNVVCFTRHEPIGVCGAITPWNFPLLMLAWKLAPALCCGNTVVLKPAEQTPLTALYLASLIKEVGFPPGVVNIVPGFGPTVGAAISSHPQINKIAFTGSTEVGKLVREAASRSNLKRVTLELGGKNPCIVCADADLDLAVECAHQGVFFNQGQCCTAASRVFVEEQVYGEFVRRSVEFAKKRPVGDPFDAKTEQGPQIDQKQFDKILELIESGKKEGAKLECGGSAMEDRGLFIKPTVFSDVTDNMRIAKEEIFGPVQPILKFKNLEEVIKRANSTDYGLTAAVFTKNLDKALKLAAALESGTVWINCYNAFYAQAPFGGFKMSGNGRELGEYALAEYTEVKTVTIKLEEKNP
As to the kind of experiment: Aldh1a3 enzyme inhibition assay (resorufin fluorescence), mouse enzyme. The text has this:
Recombinant enzyme and inhibitor added immediately before assay. Reaction rate measured by resorufin fluorescence.

For the molecule `CCc1sncc1C(=O)Nc1cc(C)c2c(c1)C1CC1C(=O)N2` (centres unmarked) [Compound 52], the half-maximal inhibitory concentration (IC50) – broadly, the concentration at which inhibition is half-maximal – at hALDH1a3 was 100 to 250 nM; on mALDH1a2 it was 100 to 250 nM; on hALDH1a2, less than 100 nM; at mALDH1a3, less than 100 nM.

Take `Cc1cc(NC(=O)c2ocnc2CC(F)(F)F)cc2c1NC(=O)CC2` [Compound 56]: the IC50 was in the range of 250 to 1000 nM on hALDH1a3, 1000 to 5000 nM at mALDH1a2, 1000 to 5000 nM on hALDH1a2 and 100 to 250 nM at mALDH1a3.

For `CCc1ncoc1C(=O)Nc1cc(C)c2c(c1)CCC(=O)N2` [Compound 57], the IC50 at hALDH1a3 lay within 250 to 1000 nM; at mALDH1a2, 1000 to 5000 nM; at hALDH1a2 it was 1000 to 5000 nM; on mALDH1a3, 100 to 250 nM.

Take `CCc1nc[nH]c1C(=O)Nc1cc(C)c2c(c1)CCC(=O)N2` [Compound 59]: the half-maximal inhibitory concentration (IC50) at hALDH1a3 was in the range of 1000 to 5000 nM; at mALDH1a2 it was 1000 to 5000 nM; on hALDH1a2, 1000 to 5000 nM; at mALDH1a3, 250 to 1000 nM.

For `CCc1ncoc1C(=O)Nc1cc(C)c2c(c1)C1CC1C(=O)N2` (centres unmarked) [Compound 60], the IC50 on hALDH1a3 lay within 250 to 1000 nM; on mALDH1a2 it was 250 to 1000 nM; on hALDH1a2, 250 to 1000 nM; at mALDH1a3, 100 to 250 nM.

As to `O=C(Nc1cc(F)c2c(c1)C1CC1C(=O)N2)c1ocnc1CC(F)(F)F` (centres unmarked) [Compound 61], the IC50 was 100 to 250 nM on hALDH1a3, 250 to 1000 nM at mALDH1a2, 250 to 1000 nM on hALDH1a2 and 250 to 1000 nM on mALDH1a3.

As to `CCc1ncoc1C(=O)Nc1cc(F)c2c(c1)C1CC1C(=O)N2` (centres unmarked) [Compound 62], the IC50 at hALDH1a3 is 1000 to 5000 nM; at mALDH1a2, greater than 5000 nM; at hALDH1a2, greater than 5000 nM; at mALDH1a3, 1000 to 5000 nM.

Consider `Cc1cc(NC(=O)c2scnc2CC2CC2)cc2c1NC(=O)CC2` [Compound 63], for which the IC50 at hALDH1a3 is less than 100 nM; at mALDH1a2, 250 to 1000 nM; at hALDH1a2, 100 to 250 nM; at mALDH1a3 it was less than 100 nM.

As to `Cc1cc(NC(=O)c2scnc2CC(C)(C)C)cc2c1NC(=O)CC2` [Compound 64], the half-maximal inhibitory concentration (IC50) at hALDH1a3 is 250 to 1000 nM; at mALDH1a2 it was 1000 to 5000 nM; on hALDH1a2, 250 to 1000 nM; on mALDH1a3, 1000 to 5000 nM.

Consider `Cc1cc(NC(=O)c2scnc2CC(C)C)cc2c1NC(=O)CC2` [Compound 65], for which the IC50 fell in the range of 100 to 250 nM on hALDH1a3, 1000 to 5000 nM at mALDH1a2, 1000 to 5000 nM at hALDH1a2 and 250 to 1000 nM at mALDH1a3.

Take `CCCc1ncsc1C(=O)Nc1cc(C)c2c(c1)CCC(=O)N2` [Compound 66]: the 50% inhibitory concentration (IC50) is 100 to 250 nM at hALDH1a3, 250 to 1000 nM on mALDH1a2, 250 to 1000 nM on hALDH1a2 and 100 to 250 nM on mALDH1a3.

As to `Cc1cc(NC(=O)c2scnc2C)cc2c1NC(=O)CC2` [Compound 67], the IC50 at hALDH1a3 lay within 250 to 1000 nM; at mALDH1a2 it was 1000 to 5000 nM; on hALDH1a2, 1000 to 5000 nM; at mALDH1a3, 250 to 1000 nM.

In the case of `Cc1c(F)c(NC(=O)c2ncsc2CC(F)(F)F)cc2c1NC(=O)CC2` [Compound 72], the IC50 on hALDH1a3 is 100 to 250 nM; on mALDH1a2, 250 to 1000 nM; at hALDH1a2, 100 to 250 nM; at mALDH1a3, 100 to 250 nM.

Regarding `Cc1c(Cl)c(NC(=O)c2ncsc2CC(F)(F)F)cc2c1NC(=O)CC2` [Compound 73], the half-maximal inhibitory concentration (IC50) at hALDH1a3 was less than 100 nM; on mALDH1a2, less than 100 nM; at hALDH1a2 it was 100 to 250 nM; on mALDH1a3, less than 100 nM.

On to `O=C1CCc2cc(NC(=O)c3ncsc3CC(F)(F)F)cc(Cl)c2N1` [Compound 75], for which the IC50 at hALDH1a3 is less than 100 nM; on mALDH1a2, 250 to 1000 nM; at hALDH1a2, 100 to 250 nM; on mALDH1a3, 100 to 250 nM.

In the case of `Cc1cc(NC(=O)c2scnc2C2CC2)cc2c1NC(=O)CC2` [Compound 77], the IC50 on hALDH1a3 is 250 to 1000 nM; on mALDH1a2, 250 to 1000 nM; on hALDH1a2, 250 to 1000 nM; at mALDH1a3 it was 100 to 250 nM.

Regarding `Cc1cc(NC(=O)c2ocnc2CC(F)(F)F)cc2c1NC(=O)C1CC21` (centres unmarked) [Compound 82], the IC50 at hALDH1a3, at mALDH1a2, on hALDH1a2 and on mALDH1a3 was 100 to 250 nM each time.
